Test results: publication PMC7316778 (Nature Communications, 2020)
Where “and” joins values, the source holds several entries; their conditions need not be identical. Equal entries are not always repeated. Where two headings read alike, the source gives them in different places.

Tests used:
WT HL-60 cells = assay: CD11b surface expression, PMA-induced macrophage differentiation; format: cell-based, human; settings: Figure 6d
MUSK = molecular target: T1, MUSK (Homo sapiens, UniProt O15146); assay: SelectScreen kinase assay
T1 sequence (O15146 24-869): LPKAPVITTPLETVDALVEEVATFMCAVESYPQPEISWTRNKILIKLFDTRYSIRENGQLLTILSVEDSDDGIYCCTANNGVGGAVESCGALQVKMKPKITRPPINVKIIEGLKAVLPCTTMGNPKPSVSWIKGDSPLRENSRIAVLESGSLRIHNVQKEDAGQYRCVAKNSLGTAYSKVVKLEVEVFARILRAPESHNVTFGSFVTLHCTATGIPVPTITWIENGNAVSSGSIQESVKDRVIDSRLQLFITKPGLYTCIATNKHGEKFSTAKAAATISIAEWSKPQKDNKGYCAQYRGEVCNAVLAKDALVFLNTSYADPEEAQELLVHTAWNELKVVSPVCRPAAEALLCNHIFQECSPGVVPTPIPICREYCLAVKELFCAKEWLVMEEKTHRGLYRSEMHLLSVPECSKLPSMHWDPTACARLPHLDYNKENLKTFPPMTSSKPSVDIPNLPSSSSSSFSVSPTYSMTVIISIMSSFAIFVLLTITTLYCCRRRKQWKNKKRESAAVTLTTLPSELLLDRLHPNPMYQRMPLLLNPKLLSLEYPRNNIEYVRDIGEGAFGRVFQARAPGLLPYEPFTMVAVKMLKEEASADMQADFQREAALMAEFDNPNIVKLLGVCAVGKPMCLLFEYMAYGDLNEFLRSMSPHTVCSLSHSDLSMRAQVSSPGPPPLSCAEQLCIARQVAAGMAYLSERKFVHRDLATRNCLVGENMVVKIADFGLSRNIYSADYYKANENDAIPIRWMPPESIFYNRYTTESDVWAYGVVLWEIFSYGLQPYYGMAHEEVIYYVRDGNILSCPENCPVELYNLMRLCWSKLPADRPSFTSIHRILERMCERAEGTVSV
Method: (§1) Selectivity profiling assays were performed by the Invitrogen SelectScreen™ Services. […] The concentration of ATP was selected to be equal to the KM, unless indicated otherwise.

DNA-PK = DNA-PK (Homo sapiens, UniProt P78527); assay: SelectScreen kinase assay
Method: as §1

FES^S700C = FES^S700C (Homo sapiens, UniProt P07332, S700C); assay: Inhibitor washout by dialysis; format: binding; parameters: expressed in transfected cells; host or cells: HEK293T (transient, PEI)
FER = FER (Homo sapiens, UniProt P16591); assay: SelectScreen kinase assay
Method: as §1

STK39 (STLK3) = STK39 (STLK3) (Homo sapiens, UniProt Q9UEW8); assay: SelectScreen kinase assay
Method: as §1

MARK4 = molecular target: T2, MARK4 (Homo sapiens, UniProt Q96L34); assay: SelectScreen kinase assay
T2 sequence (Q96L34 1-752): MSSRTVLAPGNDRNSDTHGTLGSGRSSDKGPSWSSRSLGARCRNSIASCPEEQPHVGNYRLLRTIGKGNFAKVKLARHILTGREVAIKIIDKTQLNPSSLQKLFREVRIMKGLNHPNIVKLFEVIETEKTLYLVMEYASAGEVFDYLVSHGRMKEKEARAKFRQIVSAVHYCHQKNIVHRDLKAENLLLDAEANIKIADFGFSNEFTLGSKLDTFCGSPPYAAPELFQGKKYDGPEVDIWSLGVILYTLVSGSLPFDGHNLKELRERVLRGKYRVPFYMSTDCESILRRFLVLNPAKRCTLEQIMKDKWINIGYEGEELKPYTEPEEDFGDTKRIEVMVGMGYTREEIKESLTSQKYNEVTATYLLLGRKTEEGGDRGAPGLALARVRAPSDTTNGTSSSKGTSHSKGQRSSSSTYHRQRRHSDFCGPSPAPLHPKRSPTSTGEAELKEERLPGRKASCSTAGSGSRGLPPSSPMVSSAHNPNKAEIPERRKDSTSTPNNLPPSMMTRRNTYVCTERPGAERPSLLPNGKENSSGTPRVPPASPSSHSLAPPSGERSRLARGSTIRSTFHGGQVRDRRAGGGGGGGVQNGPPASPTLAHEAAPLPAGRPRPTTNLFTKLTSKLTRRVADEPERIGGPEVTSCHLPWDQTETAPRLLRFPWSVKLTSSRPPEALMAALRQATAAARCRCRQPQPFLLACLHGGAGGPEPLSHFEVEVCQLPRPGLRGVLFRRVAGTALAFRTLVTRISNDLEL
Method: as §1

CDK18/cyclin Y = CDK18/cyclin Y (Homo sapiens, UniProt Q07002); assay: SelectScreen kinase assay; settings: for Inhibition at 1 µM (%): CDK18/cyclin Y, ZLYTE, ATP Km app
Method: as §1

MAPK1 (ERK2) = MAPK1 (ERK2) (Homo sapiens, UniProt P28482); assay: SelectScreen kinase assay
Method: as §1

CDK6/cyclin D1 = CDK6/cyclin D1 (Homo sapiens, UniProt Q00534); assay: SelectScreen kinase assay; settings: 1 h, 1 μM WEL028, 1 h preincubation
Method: as §1

PI4KB (PI4K beta) = PI4KB (PI4K beta) (Homo sapiens, UniProt Q9UBF8); assay: SelectScreen kinase assay
Method: as §1

PRKCH (PKC eta) = PRKCH (PKC eta) (Homo sapiens, UniProt P24723); assay: SelectScreen kinase assay; settings: 1 h, 1 μM WEL028, 1 h preincubation
Method: as §1

PRKCB2 (PKC beta II) = PRKCB2 (PKC beta II) (Homo sapiens, UniProt P05771); assay: SelectScreen kinase assay; settings: 1 h, 1 μM WEL028, 1 h preincubation
Method: as §1

[1] = 1 h, 1 μM WEL028, 1 h preincubation

Chain of FES^S700C (P07332 whole entry S700C): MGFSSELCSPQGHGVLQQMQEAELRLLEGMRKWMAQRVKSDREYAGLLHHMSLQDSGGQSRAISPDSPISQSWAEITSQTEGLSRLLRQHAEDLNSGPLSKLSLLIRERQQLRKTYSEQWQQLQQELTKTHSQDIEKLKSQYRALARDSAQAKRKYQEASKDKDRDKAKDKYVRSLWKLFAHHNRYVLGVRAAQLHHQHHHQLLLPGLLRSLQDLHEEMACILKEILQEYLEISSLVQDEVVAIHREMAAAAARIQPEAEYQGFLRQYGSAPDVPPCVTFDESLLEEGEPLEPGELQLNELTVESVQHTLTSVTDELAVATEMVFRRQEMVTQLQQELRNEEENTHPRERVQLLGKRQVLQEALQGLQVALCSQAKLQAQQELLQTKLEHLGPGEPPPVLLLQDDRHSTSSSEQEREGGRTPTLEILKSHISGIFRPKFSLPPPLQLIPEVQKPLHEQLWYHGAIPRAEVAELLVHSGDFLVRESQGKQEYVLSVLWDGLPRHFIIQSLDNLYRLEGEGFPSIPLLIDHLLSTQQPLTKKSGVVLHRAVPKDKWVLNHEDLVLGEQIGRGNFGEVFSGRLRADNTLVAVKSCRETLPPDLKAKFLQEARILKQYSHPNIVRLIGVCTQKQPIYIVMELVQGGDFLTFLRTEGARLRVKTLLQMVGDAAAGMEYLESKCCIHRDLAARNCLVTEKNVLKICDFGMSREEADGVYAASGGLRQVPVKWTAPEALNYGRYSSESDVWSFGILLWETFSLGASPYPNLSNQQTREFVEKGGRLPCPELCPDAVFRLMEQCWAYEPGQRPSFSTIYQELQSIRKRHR
Chain of FER (P16591 whole entry): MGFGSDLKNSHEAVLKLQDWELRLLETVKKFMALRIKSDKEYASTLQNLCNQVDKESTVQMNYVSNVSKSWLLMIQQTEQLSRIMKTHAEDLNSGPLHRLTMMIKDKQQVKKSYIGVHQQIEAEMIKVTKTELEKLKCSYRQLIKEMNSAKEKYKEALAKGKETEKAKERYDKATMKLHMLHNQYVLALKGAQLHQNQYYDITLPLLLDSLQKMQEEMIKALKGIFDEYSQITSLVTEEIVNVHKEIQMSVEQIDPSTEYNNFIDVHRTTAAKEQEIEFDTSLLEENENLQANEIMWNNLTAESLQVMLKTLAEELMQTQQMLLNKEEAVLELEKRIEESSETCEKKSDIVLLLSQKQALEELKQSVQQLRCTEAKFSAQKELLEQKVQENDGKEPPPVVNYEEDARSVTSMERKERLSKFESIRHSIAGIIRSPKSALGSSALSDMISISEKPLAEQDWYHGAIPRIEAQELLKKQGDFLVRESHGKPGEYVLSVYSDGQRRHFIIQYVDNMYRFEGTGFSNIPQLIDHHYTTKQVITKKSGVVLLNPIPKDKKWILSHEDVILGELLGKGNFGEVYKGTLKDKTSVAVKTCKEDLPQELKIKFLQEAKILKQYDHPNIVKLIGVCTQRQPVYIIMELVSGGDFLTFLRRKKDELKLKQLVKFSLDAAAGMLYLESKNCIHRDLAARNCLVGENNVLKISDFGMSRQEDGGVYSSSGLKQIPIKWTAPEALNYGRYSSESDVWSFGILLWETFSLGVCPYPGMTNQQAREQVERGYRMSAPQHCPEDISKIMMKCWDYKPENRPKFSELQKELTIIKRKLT
Chain of PI4KB (PI4K beta) (Q9UBF8 whole entry): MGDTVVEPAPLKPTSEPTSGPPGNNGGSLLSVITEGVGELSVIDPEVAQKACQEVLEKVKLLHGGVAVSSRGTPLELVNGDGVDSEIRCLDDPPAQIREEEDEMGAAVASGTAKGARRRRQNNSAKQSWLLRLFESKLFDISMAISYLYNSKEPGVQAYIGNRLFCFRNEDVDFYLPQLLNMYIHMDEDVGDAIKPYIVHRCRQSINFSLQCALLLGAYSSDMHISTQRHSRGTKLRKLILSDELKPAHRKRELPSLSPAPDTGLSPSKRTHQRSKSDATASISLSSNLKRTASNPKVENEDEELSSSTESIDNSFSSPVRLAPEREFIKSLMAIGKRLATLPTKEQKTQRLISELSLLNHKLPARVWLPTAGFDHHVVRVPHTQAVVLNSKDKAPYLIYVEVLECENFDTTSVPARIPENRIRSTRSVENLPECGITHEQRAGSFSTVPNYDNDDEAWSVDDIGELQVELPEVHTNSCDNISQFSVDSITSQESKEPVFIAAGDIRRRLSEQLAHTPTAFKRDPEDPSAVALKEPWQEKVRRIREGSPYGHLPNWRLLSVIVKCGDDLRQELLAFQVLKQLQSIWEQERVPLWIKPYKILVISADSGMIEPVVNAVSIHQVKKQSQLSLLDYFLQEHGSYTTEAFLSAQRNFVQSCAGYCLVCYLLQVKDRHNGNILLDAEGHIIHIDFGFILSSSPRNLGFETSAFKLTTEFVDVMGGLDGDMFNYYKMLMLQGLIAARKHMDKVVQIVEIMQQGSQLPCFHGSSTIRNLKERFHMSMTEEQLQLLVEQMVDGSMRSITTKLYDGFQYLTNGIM
Chain of CDK18/cyclin Y (Q07002 whole entry): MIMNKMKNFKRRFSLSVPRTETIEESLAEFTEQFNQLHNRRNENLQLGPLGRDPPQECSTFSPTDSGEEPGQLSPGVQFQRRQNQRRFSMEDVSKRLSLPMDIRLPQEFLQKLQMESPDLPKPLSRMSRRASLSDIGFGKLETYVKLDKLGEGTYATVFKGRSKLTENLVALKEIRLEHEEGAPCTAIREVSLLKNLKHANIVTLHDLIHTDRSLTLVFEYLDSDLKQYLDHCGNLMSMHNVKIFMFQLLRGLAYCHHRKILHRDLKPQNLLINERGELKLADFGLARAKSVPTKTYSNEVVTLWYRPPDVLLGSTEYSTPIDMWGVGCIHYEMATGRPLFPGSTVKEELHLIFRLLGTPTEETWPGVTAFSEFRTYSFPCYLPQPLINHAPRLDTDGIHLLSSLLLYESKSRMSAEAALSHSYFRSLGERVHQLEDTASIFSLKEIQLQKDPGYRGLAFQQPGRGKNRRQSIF
Chain of CDK18/cyclin Y (Q8ND76 whole entry partner): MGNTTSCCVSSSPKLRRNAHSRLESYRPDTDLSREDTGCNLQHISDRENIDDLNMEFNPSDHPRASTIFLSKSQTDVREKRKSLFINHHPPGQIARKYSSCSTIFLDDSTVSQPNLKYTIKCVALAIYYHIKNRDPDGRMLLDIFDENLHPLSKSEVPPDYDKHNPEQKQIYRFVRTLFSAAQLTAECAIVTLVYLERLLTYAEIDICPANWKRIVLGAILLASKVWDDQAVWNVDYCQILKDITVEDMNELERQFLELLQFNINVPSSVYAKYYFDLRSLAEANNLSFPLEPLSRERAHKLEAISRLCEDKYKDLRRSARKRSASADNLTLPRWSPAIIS
Chain of MAPK1 (ERK2) (P28482 whole entry): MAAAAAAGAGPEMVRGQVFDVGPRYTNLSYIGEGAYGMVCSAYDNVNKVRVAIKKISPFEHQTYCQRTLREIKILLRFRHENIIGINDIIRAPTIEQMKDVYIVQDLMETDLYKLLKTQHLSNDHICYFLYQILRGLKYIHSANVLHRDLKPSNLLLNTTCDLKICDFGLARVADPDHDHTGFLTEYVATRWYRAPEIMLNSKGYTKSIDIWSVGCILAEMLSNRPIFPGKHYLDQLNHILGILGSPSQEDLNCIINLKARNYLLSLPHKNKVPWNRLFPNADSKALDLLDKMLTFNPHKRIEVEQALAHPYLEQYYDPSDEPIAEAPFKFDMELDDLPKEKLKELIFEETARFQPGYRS
Chain of CDK6/cyclin D1 (Q00534 whole entry): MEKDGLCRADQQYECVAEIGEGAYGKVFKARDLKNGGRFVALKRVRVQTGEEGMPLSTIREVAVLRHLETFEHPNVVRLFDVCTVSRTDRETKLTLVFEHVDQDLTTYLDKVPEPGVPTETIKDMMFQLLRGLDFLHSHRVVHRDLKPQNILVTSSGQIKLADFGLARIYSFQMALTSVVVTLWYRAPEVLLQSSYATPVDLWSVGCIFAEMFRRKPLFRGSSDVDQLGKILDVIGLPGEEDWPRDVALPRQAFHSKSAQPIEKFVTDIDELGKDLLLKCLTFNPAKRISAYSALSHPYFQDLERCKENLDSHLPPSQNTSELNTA
Chain of CDK6/cyclin D1 (P24385 whole entry partner): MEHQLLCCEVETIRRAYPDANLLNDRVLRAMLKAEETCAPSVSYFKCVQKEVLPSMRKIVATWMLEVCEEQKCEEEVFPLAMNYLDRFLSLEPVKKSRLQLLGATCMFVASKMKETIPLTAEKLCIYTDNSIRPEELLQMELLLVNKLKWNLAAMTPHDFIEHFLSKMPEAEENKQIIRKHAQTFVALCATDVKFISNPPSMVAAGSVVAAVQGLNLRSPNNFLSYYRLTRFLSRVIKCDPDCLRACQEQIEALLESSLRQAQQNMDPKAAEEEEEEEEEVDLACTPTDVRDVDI
Chain of PRKCH (PKC eta) (P24723 whole entry): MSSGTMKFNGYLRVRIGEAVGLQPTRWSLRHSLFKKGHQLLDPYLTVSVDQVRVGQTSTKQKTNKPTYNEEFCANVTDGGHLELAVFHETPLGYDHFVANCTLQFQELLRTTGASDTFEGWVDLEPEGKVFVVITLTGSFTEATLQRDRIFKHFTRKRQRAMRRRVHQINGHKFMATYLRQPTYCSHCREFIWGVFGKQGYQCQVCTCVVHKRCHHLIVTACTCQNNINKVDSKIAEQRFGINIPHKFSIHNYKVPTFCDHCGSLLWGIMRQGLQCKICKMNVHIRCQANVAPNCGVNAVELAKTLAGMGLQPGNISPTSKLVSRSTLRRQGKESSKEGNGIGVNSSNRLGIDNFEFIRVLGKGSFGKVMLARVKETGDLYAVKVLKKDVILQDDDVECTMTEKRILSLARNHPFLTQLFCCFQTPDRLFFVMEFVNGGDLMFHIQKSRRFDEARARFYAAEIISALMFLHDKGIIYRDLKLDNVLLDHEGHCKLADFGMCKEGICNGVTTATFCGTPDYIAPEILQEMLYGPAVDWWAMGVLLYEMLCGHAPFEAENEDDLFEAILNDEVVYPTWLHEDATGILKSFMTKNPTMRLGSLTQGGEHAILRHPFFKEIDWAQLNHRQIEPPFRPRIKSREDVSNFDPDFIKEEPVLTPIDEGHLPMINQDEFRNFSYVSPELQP

For `C#CCOc1ccc(Nc2ncc(Cl)c(Nc3ccccc3NC(=O)C=C)n2)c(OC)c1` [Compound 6], the “CD11b-positive cells (%)” value (WT HL-60 cells; WEL028 100 nM) was 79.481% and 79.680% and 76.989%, the “CD11b-positive cells (%)” value (WT HL-60 cells; WEL028 1 µM) was 1.972% and 1.548% and 2.205% and the inhibition at 1 µM (MUSK; [1]) was 26%. For the same molecule, the “Inhibition at 1 µM (%)” value (MUSK; MUSK, 1 µM, ZLYTE, ATP Km app, listed as WEL028, 1 µM) was 33%, the inhibition at 1 µM (MUSK; read-out: Inhibition at 1 µM (%), MUSK, 1 µM, ZLYTE, ATP Km app) was 19% and the inhibition at 1 µM (DNA-PK; [1]) was 6%. For the same molecule, the “Inhibition at 1 µM (%)” value (DNA-PK; DNA-PK, 1 µM, ZLYTE, ATP Km app, listed as WEL028, 1 µM) was 8%, the inhibition at 1 µM (DNA-PK; read-out: Inhibition at 1 µM (%), DNA-PK, 1 µM, ZLYTE, ATP Km app) was 4% and the IC80 (FES^S700C; concentration used for dialysis, 30 min, rt) was 231 nM. The “Relative FES labeling (% of vehicle), Pre-dialysis” value (FES^S700C; inhibitor at IC80, WEL033 250 nM, replicates, listed as WEL028) was 2.76% and 2.085% and 2.269%, the “Relative FES labeling (% of vehicle), Post-dialysis” value (FES^S700C; overnight dialysis at 4 °C, WEL033 250 nM, replicates, listed as WEL028) was 10.52% and 32.8765% and 11.5588% and the inhibition at 1 µM (FER; [1]) was 23%. The “Inhibition at 1 µM (%)” value (FER; FER, 1 µM, ZLYTE, ATP Km app, listed as WEL028, 1 µM) was 27%, the inhibition at 1 µM (FER; read-out: Inhibition at 1 µM (%), FER, 1 µM, ZLYTE, ATP Km app) was 20% and the “Inhibition at 1 µM (%)” value (STK39 (STLK3); 1 µM, LanthaScreen Binding, listed as WEL028, 1 µM) was 6%. For the same molecule, the inhibition at 1 µM (STK39 (STLK3); [1]) was 8%, the inhibition at 1 µM (STK39 (STLK3); read-out: Inhibition at 1 µM (%), 1 µM, LanthaScreen Binding) was 11% and the “Inhibition (%)” value (MARK4; 1 μM WEL028, 1 h preincubation) was 8%. The “Inhibition at 1 µM (%)” value (MARK4; MARK4, 1 µM, ZLYTE, ATP Km app, listed as WEL028, 1 µM) was 6%, the inhibition at 1 µM (MARK4; read-out: Inhibition at 1 µM (%), MARK4, 1 µM, ZLYTE, ATP Km app) was 9% and the inhibition at 1 µM (CDK18/cyclin Y; [1]) was 1%. For the same molecule, the “Inhibition at 1 µM (%)” value (CDK18/cyclin Y) was 3%, the “Inhibition at 1 µM (%)” value (CDK18/cyclin Y; listed as WEL028, 1 µM) was -1% and the inhibition at 1 µM (MAPK1 (ERK2); 1 h) was 26%. The inhibition at 1 µM (MAPK1 (ERK2); read-out: Inhibition at 1 µM (%)) was 26%, the inhibition at 1 µM (CDK6/cyclin D1) was -6% and the inhibition at 1 µM (PI4KB (PI4K beta); [1]) was 34%. For the same molecule, the “Inhibition at 1 µM (%)” value (PI4KB (PI4K beta); PI4KB (PI4K beta), 1 µM, Adapta, ATP Km app, listed as WEL028, 1 µM) was 37%, the inhibition at 1 µM (PI4KB (PI4K beta); read-out: Inhibition at 1 µM (%), PI4KB (PI4K beta), 1 µM, Adapta, ATP Km app) was 30% and the inhibition at 1 µM (PRKCH (PKC eta)) was -4%. It also gave an inhibition at 1 µM (PRKCB2 (PKC beta II)) of 0%.
